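Cultured in 96-well plates, cells were exposed to test compound for 48 hours across five concentrations. GI50 marks 50% less growth.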 The source made the active and inactive calls. Cut-off read from the data, not from the text of the source: active = GI50 up to about 1.1 µM and inactive = higher.
How the values were obtained:
Assay in all cases: DTP human tumour cell line panel, 48 h
A498 = system: A498
ACHN = system: ACHN
DU-145 = system: DU-145
EKVX = system: EKVX
HCT-15 = system: HCT-15
K562 = system: K562
KM12 = system: KM12
M14 = system: M14
MDA-MB-435 = system: MDA-MB-435
NCI-H23 = system: NCI-H23
NCI-H460 = system: NCI-H460
NCI/ADR-RES = system: NCI/ADR-RES
OVCAR-3 = system: OVCAR-3
RXF 393 = system: RXF 393
SF-268 = system: SF-268
SK-MEL-2 = system: SK-MEL-2
SN12C = system: SN12C
SNB-75 = system: SNB-75
U-251 = system: U-251
SR = system: SR

| Compound | GI50 (A498) | GI50 (ACHN) | GI50 (DU-145) | GI50 (EKVX) | GI50 (HCT-15) | GI50 (K562) | GI50 (KM12) | GI50 (M14) | GI50 (MDA-MB-435) | GI50 (NCI-H23) | GI50 (NCI-H460) | GI50 (NCI/ADR-RES) | GI50 (OVCAR-3) | GI50 (RXF 393) | GI50 (SF-268) | GI50 (SK-MEL-2) | GI50 (SN12C) | GI50 (SNB-75) | GI50 (U-251) | GI50 (SR) |
| --- | --- | --- | --- | --- | --- | --- | --- | --- | --- | --- | --- | --- | --- | --- | --- | --- | --- | --- | --- | --- |
| Cc1n[nH]c(=O)n1/N=C/c1ccco1 | > 100 µM (inactive) | > 100 µM (inactive) | > 100 µM (inactive) | > 100 µM (inactive) | > 100 µM | > 100 µM (inactive) | > 100 µM (inactive) | > 100 µM (inactive) | > 100 µM (inactive) | > 100 µM (inactive) | > 100 µM (inactive) | > 100 µM (inactive) | > 100 µM (inactive) | > 100 µM (inactive) | > 100 µM (inactive) | > 100 µM (inactive) | > 100 µM (inactive) | > 100 µM (inactive) | > 100 µM (inactive) | – |
| O=C1C=C(Nc2ccc(Cl)cc2Cl)c2ccccc2C1=O | > 100 µM (inactive) | 36.2 µM (inactive) | – | > 100 µM (inactive) | 29.5 µM | 31.3 µM (inactive) | 66.5 µM (inactive) | 21.3 µM (inactive) | – | 21.7 µM (inactive) | 26.1 µM (inactive) | – | 28.4 µM (inactive) | 38.3 µM (inactive) | > 100 µM (inactive) | 23.6 µM (inactive) | 57.1 µM (inactive) | 22.4 µM (inactive) | 29.4 µM (inactive) | 29.4 µM (inactive) |
| CCOC(=O)COc1ccc(OCC(=O)OCC)c2c1C(=O)CCCC2=O | 0.281 µM (active) | > 100 µM (inactive) | – | > 100 µM (inactive) | > 100 µM | > 100 µM (inactive) | > 100 µM (inactive) | > 100 µM (inactive) | – | > 100 µM (inactive) | > 100 µM (inactive) | – | > 100 µM (inactive) | > 100 µM (inactive) | > 100 µM (inactive) | > 100 µM (inactive) | > 100 µM (inactive) | > 100 µM (inactive) | > 100 µM (inactive) | > 100 µM (inactive) |
| Cc1ccc(/C=C2\CN(C)CC3C(c4ccc(C)cc4)=C(C#N)C(=O)NC23)cc1 (stereo unspecified) | > 50 µM (inactive) | > 50 µM (inactive) | > 50 µM (inactive) | > 50 µM (inactive) | > 50 µM | > 50 µM (inactive) | > 50 µM (inactive) | > 50 µM (inactive) | > 50 µM (inactive) | > 50 µM (inactive) | > 50 µM (inactive) | > 50 µM (inactive) | > 50 µM (inactive) | > 50 µM (inactive) | > 50 µM (inactive) | > 50 µM (inactive) | > 50 µM (inactive) | – | > 50 µM (inactive) | – |
| COC(=O)C1=C(C(=O)OC)C2(c3ccccc3)c3ccccc3C(=O)C1N2C1CCCCC1 (stereo unspecified) | > 66.1 µM (inactive) | 29.2 µM (inactive) | > 100 µM (inactive) | 55.6 µM (inactive) | 48.2 µM | 3.42 µM (inactive) | 17.8 µM (inactive) | 43.3 µM (inactive) | 86.7 µM (inactive) | > 52.5 µM (inactive) | 24.5 µM (inactive) | > 82 µM (inactive) | 72.6 µM (inactive) | 33.7 µM (inactive) | 88.7 µM (inactive) | > 61.9 µM (inactive) | 49.5 µM (inactive) | > 66.8 µM (inactive) | 49.9 µM (inactive) | – |
| CN1CC[C@@H](c2c(O)cc(O)c3c(=O)cc(-c4ccccc4Cl)oc23)[C@@H](O)C1 | 0.0507 µM (active) | 0.0237 µM (active) | 0.0411 µM (active) | 0.0885 µM (active) | 0.0399 µM | 0.167 µM (active) | 0.0303 µM (active) | 0.034 µM (active) | 0.0332 µM (active) | 0.0365 µM (active) | 0.0352 µM (active) | – | – | 0.0169 µM (active) | 0.0348 µM (active) | 0.0366 µM (active) | 0.0471 µM (active) | 0.0251 µM (active) | 0.0385 µM (active) | 0.0263 µM (active) |
| COc1ccc2c(c1)N=C1CSC(c3cc([N+](=O)[O-])ccc3Cl)N1C2 (stereo unspecified) | – | 20 µM (inactive) | – | 18.3 µM (inactive) | 28.6 µM | 26 µM (inactive) | 19 µM (inactive) | 27.5 µM (inactive) | 15.6 µM (inactive) | 22.2 µM (inactive) | 19.4 µM (inactive) | 23.4 µM (inactive) | – | 19.8 µM (inactive) | 34.5 µM (inactive) | 18.2 µM (inactive) | 16.3 µM (inactive) | 19.2 µM (inactive) | 25.6 µM (inactive) | 26.5 µM (inactive) |
| [N-]=[N+]=NC1=CC(=O)c2cccc3cccc1c23 | 12.2 µM (inactive) | 29.2 µM (inactive) | 33.4 µM (inactive) | – | – | 26.2 µM (inactive) | 85.9 µM (inactive) | 18.4 µM (inactive) | 40 µM (inactive) | 20.7 µM (inactive) | 31.1 µM (inactive) | – | 31.7 µM (inactive) | 16.8 µM (inactive) | 29.9 µM (inactive) | – | 43.3 µM (inactive) | 13.5 µM (inactive) | 20.1 µM (inactive) | 67.3 µM (inactive) |
